Results published in US4749710A, “Immunosuppressive agents” (priority 1985, dated 1988).

Legend:
Type in all cases: cell-based
[1] = tested on: human mixed leukocyte-tumor cultures; experiment: Total viable cells recovered from human mixed leukocyte-tumor cultures; conditions: Table IV
Method: Human cytotoxic T-lymphocytes were generated in mixed leukocyte-tumor cultures by known methods. Specifically, blood from normal volunteer donors was drawn into heparinized syringes, diluted 1:1 with calcium-magnesium free Hanks' balanced salt solution (Ca-Mg free HBSS), and layered over lymphocyte separation medium (Litton Bionetics, Kensington, MD). After centrifugation at 500xg for 20-30 min at room temperature, peripheral blood mononuclear cells were harvested from the interface. The peripheral blood mononuclear leukocytes were centrifuged and resuspended in Ca-Mg free HBSS and were subsequently separated from platelets by centrifugation at 500xg through a solution of 20% sucrose and 1% human AB serum in Ca-Mg free HBSS. The cells were washed once and finally resuspended in tissue culture medium. […] Cells to be used as stimulator cells in mixed leukocyte-tumor cultures were irradiated with 10,000 rads of gamma irradiation to preclude proliferation in culture. Mixed leukocyte-tumor cell cultures were established in 16 mm tissue culture wells at a final volume of 1.5 ml per well containing 2×10^6 peripheral blood mononuclear leukocytes and 5×10^4 irradiation-inactivated stimulator cells. […]

[2] = tested on: IgM production by human lymphocytes; experiment: Inhibition of IgM production by human lymphocytes in vitro (SAC activation, ELISA); conditions: 8 days, vehicle control 2.49 ± 0.17
Outline: (§1)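 Human PBL (2.5×10^6 cells/ml in 20% FBS RPMI) activated with SAC (1:20,000) for 8 days with vitamin D derivatives at 10^-5–10^-10 M final, 0.1% ethanol vehicle, triplicates. Secreted IgM or IgG quantified by ELISA and compared with vehicle cultures.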

[3] = tested on: IgG production by human lymphocytes; experiment: Inhibition of IgG production by human lymphocytes in vitro (SAC activation, ELISA); conditions: 8 days, vehicle control 0.78 ± 0.09
Outline: as §1

SMILES | toxicity at concentrations suppressing human CTL generation (in words) [1] | IgM μg per culture (x ± S.E.M.) ([2]; 1 × 10^-6 molar) | IgM μg per culture (x ± S.E.M.) ([2]; 1 × 10^-7 molar) | IgM μg per culture (x ± S.E.M.) ([2]; 1 × 10^-8 molar) | IgM μg per culture (x ± S.E.M.) ([2]; 1 × 10^-9 molar) | IgM μg per culture (x ± S.E.M.) ([2]; 1 × 10^-10 molar) | IgG μg per culture (x ± S.E.M.) ([3]; 1 × 10^-6 molar) | IgG μg per culture (x ± S.E.M.) ([3]; 1 × 10^-7 molar) | IgG μg per culture (x ± S.E.M.) ([3]; 1 × 10^-8 molar) | IgG μg per culture (x ± S.E.M.) ([3]; 1 × 10^-9 molar) | IgG μg per culture (x ± S.E.M.) ([3]; 1 × 10^-10 molar)
C=C1/C(=C\C=C2/CCC[C@]3(C)[C@@H]([C@H](C)C[C@H](O)CC(C)(C)O)CC[C@@H]23)C[C@@H](O)C[C@@H]1O [1α,23S,25-(OH)3 --D3, 1α,23S,25-Trihydroxycholecalciferol] | non-toxic | undetectable | 0.12 ± 0.07 μg per culture | 0.46 ± 0.13 μg per culture | 1.55 ± 0.96 μg per culture | 4.61 ± 0.73 μg per culture | 0.01 ± 0.002 μg per culture | 0.02 ± 0.002 μg per culture | 0.05 ± 0.01 μg per culture | 1.14 ± 0.61 μg per culture | 0.54 ± 0.18 μg per culture
C=C1/C(=C\C=C2/CCC[C@]3(C)[C@@H]([C@H](C)/C=C/[C@H](C)[C@](C)(O)CO)CC[C@@H]23)C[C@@H](O)C[C@@H]1O [1α,25S,26-(OH)3 --D2, 1α,25S,26-Trihydroxyergocalciferol] |  | 0.01 ± 0.006 μg per culture | 0.03 ± 0.01 μg per culture | 0.14 ± 0.12 μg per culture | 0.29 ± 0.17 μg per culture | 1.09 ± 0.26 μg per culture | undetectable | 0.01 ± 0.005 μg per culture | 0.07 ± 0.02 μg per culture | 0.08 ± 0.03 μg per culture | 0.21 ± 0.06 μg per culture
C=C1/C(=C\C=C2/CCC[C@]3(C)[C@@H]([C@H](C)C=CC[C@](C)(O)CO)CC[C@@H]23)C[C@@H](O)C[C@@H]1O [1α,25S,26-(OH)3 --Δ^22 -D3, 1α,25S,26-Trihydroxy-Δ^22-cholecalciferol] |  | undetectable | 0.05 ± 0.03 μg per culture | 0.09 ± 0.04 μg per culture | 0.24 ± 0.07 μg per culture | 1.02 ± 0.34 μg per culture | 0.005 ± 0.002 μg per culture | 0.01 ± 0.002 μg per culture | 0.04 ± 0.01 μg per culture | 0.06 ± 0.03 μg per culture | 0.20 ± 0.03 μg per culture
